The values below are quoted from earlier work in patent publication US11696883B2, “Compositions for reducing hair loss and/or increasing hair regrowth” (Triple Hair Inc., priority 2014, dated 2023).

Structures are written as SMILES. Like-named read-outs stand apart in the source and are kept apart here.

In data set [1] the test system is hair loss. Particulars: topical.
Data set [2] concerns prostaglandin endoperoxide synthase-1 (PGHS-1). Particulars: Michelet et al. 1997.
The conditions of data set [3]: latanoprost in ophthalmology use.

In the case of `Nc1cc(N2CCCCC2)nc(N)[n+]1[O-]` [Minoxidil, 6-(1-pipedidinyl)-2,4-pyrimidinediamine 3-oxide], the “effective in promoting regrowth of the hair” value in data set [1] was “less than 40%”. In data set [2], the “activation of purified PGHS-1” value is on record as “potent activator”.
As to `CC(C)(C)NC(=O)[C@H]1CC[C@H]2[C@@H]3CC[C@H]4NC(=O)C=C[C@]4(C)[C@H]3CC[C@]12C` [Finasteride, (5α,17β)-N-(1,1-Dimethylethyl)-3-oxo-4-azaandrost-1-ene-17-carboxamide], the “solubility” value was “very slightly soluble” (in 0.1N HCl and 0.1N NaOH); “freely soluble” (in chloroform, DMSO, ethanol, methanol, n-propanol); “sparingly soluble” (in propylene glycol, polyethylene glycol 400); “not soluble” (in water).
Turning to `CC(C)OC(=O)CCC/C=C\C[C@@H]1[C@@H](CC[C@@H](O)CCc2ccccc2)[C@H](O)C[C@@H]1O` [Latanoprost], the other adverse effects result in data set [3] is “erythema, folliculitis, sensation of burning and erysipelas”. Moreover, in data set [3], the side effects entry is reported as “augmentation of periocular hirsuteness”. The “solubility” value is, setting by setting: (in acetone, ethanol, ethyl acetate, isopropanol, methanol and octanol) “freely soluble”; (in acetonitrile) “very soluble”; (in water) “practically insoluble”.
